Experimental data: patent US10004702B2, “Linear guanidine derivatives, methods of preparation and uses thereof” (LEAD DISCOVERY SIENA S.R.L., priority 2014, dated 2018)
≈ marks a conversion by molar mass, not a printed value.

Assays:
[1] = system: Achromobacter xylosoxidans AX 22; experiment: Antimicrobial susceptibility testing, MIC by microdilution broth method; type: cell-based; settings: AX22, Mueller-Hinton broth, 18-24 hours at 35-37° C., read-out: MIC
Experimental: (§1) Bacterial strains were obtained from the ATCC or CCUG culture collections or present in the authors' collection of clinical isolates. Compounds were re-suspended in dimethyl sulfoxyde (DMSO) at a final concentration of 10 mg/ml and subsequently diluted in the culture medium. The minimum inhibitory concentrations (MICs) of the compounds of the invention were determined using the microdilution broth method using Mueller-Hinton broth as recommended by the Clinical Laboratory Standards Institute (CLSI [11]). Bacterial inoculum was 5×10^4 CFU/well. MICs were recorded after 18-24 hours incubation at 35-37° C.

[2] = system: Acinetobacter baumannii ATCC 17978; experiment: as above; type: cell-based; settings: ATCC17978, Mueller-Hinton broth, 18-24 hours at 35-37° C., read-out: MIC
Experimental: as §1

[3] = system: Alcaligenes faecalis 424/98; experiment: as above; type: cell-based; settings: Mueller-Hinton broth, 18-24 hours at 35-37° C., read-out: MIC
Experimental: as §1

[4] = system: Chryseobacterium meningosepticum CCUG 4310; experiment: as above; type: cell-based; settings: Elizabethkingia meningoseptica, CCUG4310, Mueller-Hinton broth, 18-24 hours at 35-37° C., read-out: MIC
Experimental: as §1

[5] = system: Enterococcus faecalis ATCC 19433; experiment: as above; type: cell-based; settings: ATCC19433, Mueller-Hinton broth, 18-24 hours at 35-37° C., read-out: MIC
Experimental: as §1

[6] = system: Escherichia coli CCUG^T; experiment: as above; type: cell-based; settings: Mueller-Hinton broth, 18-24 hours at 35-37° C., read-out: MIC
Experimental: as §1

[7] = system: Klebsiella pneumoniae ATCC 13833; experiment: as above; type: cell-based; settings: ATCC13833, Mueller-Hinton broth, 18-24 hours at 35-37° C., read-out: MIC
Experimental: as §1

[8] = system: Pseudomonas aeruginosa ATCC 27853; experiment: as above; type: cell-based; settings: ATCC27853, Mueller-Hinton broth, 18-24 hours at 35-37° C., read-out: MIC
Experimental: as §1

[9] = system: Staphylococcus aureus ATCC 25923; experiment: as above; type: cell-based; settings: ATCC25923, Mueller-Hinton broth, 18-24 hours at 35-37° C., read-out: MIC
Experimental: as §1

[10] = system: Stenotrophomonas maltophilia 634/08; experiment: as above; type: cell-based; settings: Mueller-Hinton broth, 18-24 hours at 35-37° C., read-out: MIC
Experimental: as §1

[11] = system: Alcaligenes faecalis 424/98; experiment: Bactericidal activity (MBC); type: cell-based
[12] = system: Escherichia coli CCUG^T; experiment: Bactericidal activity (MBC); type: cell-based
[13] = system: Pseudomonas aeruginosa ATCC 27853; experiment: Bactericidal activity (MBC); type: cell-based; settings: ATCC27853
[14] = system: Acinetobacter baumannii AC-54/97 (IMP-2); experiment: Bactericidal activity (MBC); type: cell-based
[15] = system: Klebsiella pneumoniae 167R; experiment: MIC against resistant clinical isolates; type: cell-based; settings: resistance profile PDR
Experimental: as §1
(§2) The Antibacterial activity of compound 28 was also tested on a panel of Gram-negative and Gram-positive clinical isolates, showing various antimicrobial susceptibility profiles (Table 4). The class of drugs for which the isolate was resistant to is indicated in column 2 (PEN, penicillins; ES-CEPH, expanded-spectrum cephalosporins; CARB, carbapenems; AZT; aztreonam; AG, aminoglycosides; FQ, fluoroquinolones; SXT, trimethoprim/sulfamethoxazole; FOS, fosfomycin; GLY, glycopeptides; LNZ, linezolid; COL-R, colistin resistant; COL-S colistin sensitive; PDR, poly-drug resistant).

[16] = system: Klebsiella pneumoniae 207-1; experiment: MIC against resistant clinical isolates; type: cell-based; settings: 2071, COL-S
Experimental: as §1, §2

[17] = system: Klebsiella pneumoniae 207-2; experiment: MIC against resistant clinical isolates; type: cell-based; settings: 2072, COL-R
Experimental: as §1, §2

[18] = system: Klebsiella pneumoniae 7023; experiment: MIC against resistant clinical isolates; type: cell-based; settings: resistance profile PEN, ES-CEPH, CARB, AG, FQ, SXT
Experimental: as §1, §2

[19] = system: Klebsiella pneumoniae B1; experiment: MIC against resistant clinical isolates; type: cell-based; settings: COL-S
Experimental: as §1, §2

[20] = system: Klebsiella pneumoniae B2; experiment: MIC against resistant clinical isolates; type: cell-based; settings: COL-R
Experimental: as §1, §2

[21] = system: Klebsiella pneumoniae BO1; experiment: MIC against resistant clinical isolates; type: cell-based; settings: COL-S
Experimental: as §1, §2

[22] = system: Klebsiella pneumoniae BO4; experiment: MIC against resistant clinical isolates; type: cell-based; settings: COL-R
Experimental: as §1, §2

[23] = system: Klebsiella pneumoniae KP0787; experiment: MIC against resistant clinical isolates; type: cell-based; settings: resistance profile PDR
Experimental: as §1, §2

[24] = system: Pseudomonas aeruginosa 101/1477; experiment: MIC against resistant clinical isolates; type: cell-based; settings: resistance profile PEN, ES-CEPH, CARB, AG
Experimental: as §1, §2

[25] = system: Pseudomonas aeruginosa 14X-34; experiment: MIC against resistant clinical isolates; type: cell-based; settings: 14X34, resistance profile PDR
Experimental: as §1, §2

[26] = system: Pseudomonas aeruginosa VR143/97; experiment: MIC against resistant clinical isolates; type: cell-based; settings: resistance profile PEN, ES-CEPH, CARB, MON, AG, FQ
Experimental: as §1, §2

[27] = system: Staphylococcus aureus ATCC 43300 (MRSA); experiment: MIC against resistant clinical isolates; type: cell-based; settings: resistance profile PEN
Experimental: as §1, §2

[28] = system: Staphylococcus aureus ATCC 700699 (VanA); experiment: MIC against resistant clinical isolates; type: cell-based; settings: ATCC700699, resistance profile GLY
Experimental: as §1, §2

[29] = system: Staphylococcus haemolyticus SI-6/2011; experiment: MIC against resistant clinical isolates; type: cell-based; settings: SI6/2011, resistance profile AG
Experimental: as §1, §2

[30] = system: Staphylococcus warneri SI-5/2011; experiment: MIC against resistant clinical isolates; type: cell-based; settings: SI5/2011, resistance profile PEN, AG
Experimental: as §1, §2

[31] = system: human liver microsomial enzymes; experiment: Metabolic stability assay; type: in vitro ADME; settings: human liver microsomes, 1 h of incubation at 37° C., 50 μM
Experimental: The reaction was stopped by cooling in ice and adding 1.0 mL of acetonitrile. The reaction mixtures were then centrifuged, and the parent drug and metabolites were subsequently determined by LC-UV-MS as reported for the solubility assay

`N=C(N)NCCCCCCCCN(CCCCCCCCNC(=N)NCC1CC1)C(=O)N(CCCCCCCCNC(=N)N)CCCCCCCCNC(=N)NCC1CC1` [Compound 28, 1,3-bis(8-(3-(cyclopropylmethyl)guanidino)octyl)-1,3-bis(8-guanidinooctyl)urea] showed an MIC [1] of 8 µg/mL (≈ 9.46 µM), an MIC [2] of 4 µg/mL (≈ 4.73 µM) and an MIC [3] of 8 µg/mL (≈ 9.46 µM). The MIC [4] was 64 µg/mL (≈ 75.7 µM), the MIC [5] was < 0.125 µg/mL and the MIC [6] was 1 µg/mL (≈ 1.18 µM). The MIC [7] was 1 µg/mL (≈ 1.18 µM), the MIC [8] was 4 µg/mL (≈ 4.73 µM) and the MIC [9] was 2 µg/mL (≈ 2.37 µM). The MIC [10] was 16 µg/mL (≈ 18.9 µM), the MBC [11] was 8 µg/mL (≈ 9.46 µM) and the MBC [12] was 1 µg/mL (≈ 1.18 µM). The MBC [13] was 4 µg/mL (≈ 4.73 µM), the MBC [14] was 2 µg/mL (≈ 2.37 µM) and the MIC [15] was 4 µg/mL (≈ 4.73 µM). For the same molecule, the MIC [16] was 4 µg/mL (≈ 4.73 µM), the MIC [17] was 8 µg/mL (≈ 9.46 µM) and the MIC [18] was 2 µg/mL (≈ 2.37 µM). For the same molecule, the MIC [19] was 4 µg/mL (≈ 4.73 µM), the MIC [20] was 4 µg/mL (≈ 4.73 µM) and the MIC [21] was 4 µg/mL (≈ 4.73 µM). It also gave an MIC [22] of 8 µg/mL (≈ 9.46 µM), an MIC [23] of 1 µg/mL (≈ 1.18 µM) and an MIC [24] of 8 µg/mL (≈ 9.46 µM). The MIC [25] was 8 µg/mL (≈ 9.46 µM), the MIC [26] was 8 µg/mL (≈ 9.46 µM) and the MIC [27] was 4 µg/mL (≈ 4.73 µM). It also gave an MIC [28] of 4 µg/mL (≈ 4.73 µM), an MIC [29] of 2 µg/mL (≈ 2.37 µM) and an MIC [30] of 2 µg/mL (≈ 2.37 µM). For the same molecule, the metabolic stability [31] was 99.9%.
